Source: patent publication US20240390383A1, “DIOXAZINES AND THEIR USE IN TREATMENT OF GBA-RELATED DISEASES” (ZEVRA DENMARK A/S, priority 2021, published 2024)

Molecular target: T1, GCase (GBA) in human fibroblast cell line GM10915 harboring the L444P GBA mutation (Homo sapiens, UniProt P04062, L483P)
T1 construct: Human fibroblast cell line GM10915 harboring the L444P GBA mutation; host or cells: GM10915 human fibroblasts
T1 sequence (P04062 40-536 L483P): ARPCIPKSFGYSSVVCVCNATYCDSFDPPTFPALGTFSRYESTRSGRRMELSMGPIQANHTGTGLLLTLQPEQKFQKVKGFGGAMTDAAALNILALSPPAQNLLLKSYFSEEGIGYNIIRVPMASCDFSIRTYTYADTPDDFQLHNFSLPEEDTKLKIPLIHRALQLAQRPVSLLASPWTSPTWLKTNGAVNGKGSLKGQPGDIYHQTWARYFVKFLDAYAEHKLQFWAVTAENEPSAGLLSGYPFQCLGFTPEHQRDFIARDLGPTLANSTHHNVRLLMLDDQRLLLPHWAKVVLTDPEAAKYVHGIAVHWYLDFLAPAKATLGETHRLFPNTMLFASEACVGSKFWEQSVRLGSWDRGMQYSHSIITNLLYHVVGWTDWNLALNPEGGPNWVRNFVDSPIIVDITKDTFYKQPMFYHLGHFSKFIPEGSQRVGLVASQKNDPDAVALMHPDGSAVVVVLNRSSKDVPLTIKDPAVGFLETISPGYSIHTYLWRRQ
Assay: GCase activity assay (4-MUG substrate, normalised to crystal violet staining) in L444P GBA fibroblasts
Assay type: cell-based
Settings: 5 days exposure; for GBA EC1.5: concentration giving 150% GCase activity (1.5-fold induction), 8-point dose range; for Emax: maximum percent GCase activity relative to untreated cells in the dose range tested
Method: Human fibroblast cell line GM10915 harboring the L444P GBA mutation was obtained from Coriell Biorepositories.
All chemicals (Glacial acetic acid, Glycine, 4-Methylumbelliferyl b-D-glucopyranoside (4-MUG), Sodium acetate trihydrate, Sodium hydroxide, Crystal violet, SDS, Ammonium hydroxide) were obtained from Sigma-Aldrich (Denmark) Compounds tested for GCase activity were dissolved in H2O or DMSO.
The GM10915 cell line was cultured under standard cell culture conditions (37° C. and 5% CO2) in complete DMEM medium supplemented with nonessential amino acids (NEAA), 1% Pen-Strep and 12% FCS. Cells were seeded at a density of 10^4 cells/well in 100 μL complete medium in one black 96-well plate for glucosylceramidase (GCase) activity measurement and in one clear 96-well plate for crystal violet staining to correct for cell density. Crystal violet staining is performed to obtain quantitative information about the relative density of cells adhering to multi-wells plates.
The assay was adapted from Sawkar et al (2002) and briefly described in the following. The day after seeding of cells, the medium was replaced with fresh medium containing the compounds to be tested. Compounds were tested in duplicate and in an 8-point diluted dose range to obtain a dose response. Cells were exposed with compounds for five days. Fresh compound was added every 2-3 days. PBS was included to define the basal level of GCase activity.
Cells were washed three times with 200 μL PBS per well and 50 μL of 2.5 mM 4-MUG buffer (4-MUG dissolved in 0.2 M acetate buffer pH 4.0) was added and the cells were incubated at 37° C., 5% CO2 for 23 hours. The reaction was stopped by adding 150 μL 0.2 M glycine buffer (pH 10.8). Fluorescence was measured with a Varioskan® Flash reader (Thermo Scientific) at an excitation/emission setting of 365/445 nm.
Cells were treated with compounds in a parallel setup identical to the setup to test for GCase activity. At the end of compound treatment, cells were washed once with 200 μL PBS per well and 50 μL 0.1% w/v crystal violet (in H2O) was added. Following 10 min. of incubation, the crystal violet solution was removed, and the cells were washed three times with 200 μL PBS and 100 μL 1% SDS was added to solubilize the stain. The plate was agitated on an orbital shaker for 10-30 min. Absorbance (A) is measured at […] using a Varioskan® Flash reader (Thermo Scientific).
The fluorescence signal (F) derived from the GCase measurement is normalized to the absorbance signal (A) derived from the crystal violet staining. The percent GCase activity resulting from compound treatment is calculated relative to the basal activity obtained from untreated cells.
Maximal effect of compounds (Emax) is determined from the dose response effects as the maximum “Percent GCase activity” achieved in the dose range tested.

GBA EC1.5	Emax	SMILES
10 µM	283%	CC1(C2=NOCC(CN3CCCCC3)O2)CCNC1 (racemic) [compound 465, rac-3-(3-methylpyrrolidin-3-yl)-5-(piperidin-1-ylmethyl)-5,6-dihydro-1,4,2-dioxazine]
9 µM	181%	CC(C)(C1=NOCC(CN2CCCCC2)O1)C1CCCNC1 (racemic) [compound 473, rac-5-(piperidin-1-ylmethyl)-3-(2-(piperidin-3-yl)propan-2-yl)-5,6-dihydro-1,4,2-dioxazine di-2,2,2-trifluoroacetate]
6 µM	253%	CC1(C2=NOCC(CN3CCCCC3)O2)CCCNC1 (racemic) [compound 476, rac-3-(3-methylpiperidin-3-yl)-5-(piperidin-1-ylmethyl)-5,6-dihydro-1,4,2-dioxazine]
15 µM	181%	CC(C)(C1=NOCC(CN2CCCCC2)O1)C1CCNCC1 (racemic) [compound 477, rac-5-(piperidin-1-ylmethyl)-3-(2-(piperidin-4-yl)propan-2-yl)-5,6-dihydro-1,4,2-dioxazine di-2,2,2-trifluoroacetate]
35 µM	184%	C1CCN(CC2CON=C(CC3CCNCC3)O2)CC1 (racemic) [compound 479, rac-5-(piperidin-1-ylmethyl)-3-(piperidin-4-ylmethyl)-5,6-dihydro-1,4,2-dioxazine]
16 µM	273%	CC1(C2=NOCC(CN3CCCCC3)O2)CNCCO1 (racemic) [compound 480, rac-3-(2-methylmorpholin-2-yl)-5-(piperidin-1-ylmethyl)-5,6-dihydro-1,4,2-dioxazine]
11 µM	215%	C1CCN(CC2CON=C([C@@]34CN[C@@H](CO3)C4)O2)CC1 (mixture of isomers) [compound 490, rac-(1R,4R)-1-(5-(piperidin-1-ylmethyl)-5,6-dihydro-1,4,2-dioxazin-3-yl)-2-oxa-5-azabicyclo[2.2.1]heptane]
28 µM	230%	CC(C)(C1=NOCC(CN2CCCCC2)O1)C1CCNC1 (racemic) [compound 491, rac-5-(piperidin-1-ylmethyl)-3-(2-(pyrrolidin-3-yl)propan-2-yl)-5,6-dihydro-1,4,2-dioxazine]
14 µM	166%	CC1(C2=NOCC(CN3CCNC(C(F)(F)F)CC3)O2)CCNCC1 (racemic) [compound 500, rac-3-(4-methylpiperidin-4-yl)-5-((5-(trifluoromethyl)-1,4-diazepan-1-yl)methyl)-5,6-dihydro-1,4,2-dioxazine]
17 µM	226%	C1CCN(CC2CON=C(C3CCNC3)O2)CC1 (racemic) [compound 508, rac-5-(piperidin-1-ylmethyl)-3-(pyrrolidin-3-yl)-5,6-dihydro-1,4,2-dioxazine]
40 µM	159%	C1CCN(CC2CON=C(C34CCCNCC3C4)O2)CC1 (racemic) [compound 519, rac-3-(3-azabicyclo[5.1.0]octan-7-yl)-5-(piperidin-1-ylmethyl)-5,6-dihydro-1,4,2-dioxazine]
19 µM	336%	C1CCN(CC2CON=C(C3(C4CCNCC4)CC3)O2)CC1 (racemic) [compound 521, rac-5-(piperidin-1-ylmethyl)-3-(1-(piperidin-4-yl)cyclopropyl)-5,6-dihydro-1,4,2-dioxazine]
26 µM	187%	C1CCN(CC2CON=C(C34CNC(C3)C4)O2)CC1 (racemic) [compound 527, rac-3-(2-azabicyclo[2.1.1]hexan-4-yl)-5-(piperidin-1-ylmethyl)-5,6-dihydro-1,4,2-dioxazine]
6 µM	181%	Fc1cncc(CC2(C3=NOCC(CN4CCCCC4)O3)CCNCC2)c1 (racemic) [compound 528, rac-3-(4-((5-fluoropyridin-3-yl)methyl)piperidin-4-yl)-5-(piperidin-1-ylmethyl)-5,6-dihydro-1,4,2-dioxazine]
11 µM	222%	CN1CCCC(C)(C2=NOCC(CN3CCCCC3)O2)C1 (racemic) [compound 529, rac-3-(1,3-dimethylpiperidin-3-yl)-5-(piperidin-1-ylmethyl)-5,6-dihydro-1,4,2-dioxazine]
7 µM	282%	CC1ON=C(C2(C)CCNCC2)OC1CN1CCCCC1 (racemic) [compound 531, rac-6-methyl-3-(4-methylpiperidin-4-yl)-5-(piperidin-1-ylmethyl)-5,6-dihydro-1,4,2-dioxazine]
18 µM	253%	CN1CCC(C2=NOCC(CN3CCCCC3)O2)C1 (racemic) [compound 546, rac-3-(1-methylpyrrolidin-3-yl)-5-(piperidin-1-ylmethyl)-5,6-dihydro-1,4,2-dioxazine]
21 µM	281%	C1CCN(CC2CON=C(C3C4CNC3C4)O2)CC1 (racemic) [compound 548, rac-3-(2-azabicyclo[2.1.1]hexan-5-yl)-5-(piperidin-1-ylmethyl)-5,6-dihydro-1,4,2-dioxazine]
36 µM	232%	CC1(C2=NOCC(CN3CCCCC3)O2)CNC1 (racemic) [compound 549, rac-3-(3-methylazetidin-3-yl)-5-(piperidin-1-ylmethyl)-5,6-dihydro-1,4,2-dioxazine]
27 µM	159%	c1cncc(CC2(C3=NOCC(CN4CCCCC4)O3)CCNCC2)c1 (racemic) [compound 550, rac-5-(piperidin-1-ylmethyl)-3-(4-(pyridin-3-ylmethyl)piperidin-4-yl)-5,6-dihydro-1,4,2-dioxazine]
4 µM	341%	C1CCN(CC2CON=C(C34CCCN(CC3)C4)O2)CC1 (racemic) [compound 553, rac-3-(1-azabicyclo[3.2.1]octan-5-yl)-5-(piperidin-1-ylmethyl)-5,6-dihydro-1,4,2-dioxazine]
11 µM	271%	C1CCN(CC2CON=C(CC3CCCNC3)O2)CC1 (racemic) [compound 554, rac-5-(piperidin-1-ylmethyl)-3-(piperidin-3-ylmethyl)-5,6-dihydro-1,4,2-dioxazine]
16 µM	251%	CC1NCCC1C1=NOCC(CN2CCCCC2)O1 (racemic) [compound 559, rac-3-(2-methylpyrrolidin-3-yl)-5-(piperidin-1-ylmethyl)-5,6-dihydro-1,4,2-dioxazine]
8 µM	244%	CC1CC(C2=NOCC(CN3CCCCC3)O2)CN1 (racemic) [compound 560, rac-3-(5-methylpyrrolidin-3-yl)-5-(piperidin-1-ylmethyl)-5,6-dihydro-1,4,2-dioxazine]
5 µM	184%	Cc1ncccc1CC1(C2=NOCC(CN3CCCCC3)O2)CCNCC1 (racemic) [compound 561, rac-3-(4-((2-methylpyridin-3-yl)methyl)piperidin-4-yl)-5-(piperidin-1-ylmethyl)-5,6-dihydro-1,4,2-dioxazine]
37 µM	168%	COC1CNC(C)(C2=NOCC(CN3CCCCC3)O2)C1 (racemic) [compound 565, rac-3-(4-methoxy-2-methylpyrrolidin-2-yl)-5-(piperidin-1-ylmethyl)-5,6-dihydro-1,4,2-dioxazine]
